{
  "source": "patent US20240299400A1",
  "about": "“Transcription Factor GLI1 Inhibitors and Uses Thereof” (University of Connecticut, priority 2023, published 2024)",
  "key": {"GLI1 mRNA expression [1]": {"tested_on": "GLI1 mRNA expression", "experiment": "RT-qPCR GLI1 mRNA expression in Sufu-KO MEFs", "assay_type": "cell-based, mouse", "details": "for IC50: Mus musculus, Ave ± SEM, read-out: RT-qPCR, IC50 Sufu-KO"}, "GLI1 mRNA expression [2]": {"tested_on": "GLI1 mRNA expression", "experiment": "RT-qPCR GLI1 mRNA expression in ASZ001 BCC cells", "assay_type": "cell-based, mouse", "details": "Mus musculus, Ave ± SEM, read-out: RT-qPCR, IC50 ASZ001"}, "ASZ001 cells": {"tested_on": "ASZ001 cells", "experiment": "MTS anti-proliferative assay in ASZ001 cells", "assay_type": "cell-based, murine", "details": "Mus musculus, ASZ001, Ave ± SEM"}, "DAOY (MB)": {"tested_on": "DAOY (MB)", "experiment": "MTS anti-proliferative assay in DAOY cells", "assay_type": "cell-based", "details": "Homo sapiens, Daoy; Table 8, 48 h, mean ± SEM"}, "PANC-1 (pancreatic)": {"tested_on": "PANC-1 (pancreatic)", "experiment": "MTS anti-proliferative assay in PANC-1 cells", "assay_type": "cell-based", "details": "Homo sapiens, PANC-1; Table 8, 48 h, mean ± SEM"}, "CSF1R": {"molecular_target": "T1, CSF1R (Homo sapiens, UniProt P07333)", "T1 construct": "purchased ThermoFisher Scientific (Madison, WI, USA), contract service", "experiment": "ZLyte kinase assay, CSF1R", "assay_type": "biochemical", "details": "average of three replicates", "protocol": "(§1) Kinase screening experiments. Kinase inhibition/binding experiments were performed by ThermoFisher Scientific (Madison, WI, USA) as a contract service, utilizing their default protocols [G. Yernale, A comprehensive review on the biological interest of quinoline and its derivatives. Bioorg. Med. Chem. 32 (2021) 115973]. Briefly, for ZLyte assay, compound in DMSO (100 nL), kinase buffer (2.4 μL), peptide/kinase mixture (5 μL), and ATP solution (2.5 μL) were mixed in a black 384-well plate. Following a 30 s plate shake to mix reagents, the kinase assay mixture was incubated at RT for 60 min. Following addition of the development reagent solution to each well, another 60 min incubation was performed at RT for reaction development. Fluorescent signal was recorded and subsequently analyzed."}, "CSNK1A1": {"molecular_target": "T2, CSNK1A1 (Homo sapiens, UniProt P48729)", "T2 construct": "purchased ThermoFisher Scientific (Madison, WI, USA), contract service", "T2 sequence (P48729 whole entry)": "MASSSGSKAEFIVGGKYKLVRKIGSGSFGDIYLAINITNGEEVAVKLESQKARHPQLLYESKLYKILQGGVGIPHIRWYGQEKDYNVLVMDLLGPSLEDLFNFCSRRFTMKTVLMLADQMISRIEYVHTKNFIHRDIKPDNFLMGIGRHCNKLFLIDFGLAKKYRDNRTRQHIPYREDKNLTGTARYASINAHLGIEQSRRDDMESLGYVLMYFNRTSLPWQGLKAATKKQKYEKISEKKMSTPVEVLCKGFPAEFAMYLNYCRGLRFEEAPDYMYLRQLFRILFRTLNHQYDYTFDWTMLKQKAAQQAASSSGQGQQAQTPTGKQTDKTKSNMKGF", "experiment": "ZLyte kinase assay, CSNK1A1", "assay_type": "biochemical", "details": "average of three replicates", "protocol": "as §1"}, "DYRKIA": {"molecular_target": "T3, DYRKIA (Homo sapiens, UniProt Q13627)", "T3 construct": "purchased ThermoFisher Scientific (Madison, WI, USA), contract service", "experiment": "ZLyte kinase assay, DYRKIA", "assay_type": "biochemical", "details": "average of three replicates", "protocol": "as §1"}, "DYRK1B": {"molecular_target": "T4, DYRK1B (Homo sapiens, UniProt Q9Y463)", "T4 construct": "purchased ThermoFisher Scientific (Madison, WI, USA), contract service", "T4 sequence (Q9Y463 whole entry)": "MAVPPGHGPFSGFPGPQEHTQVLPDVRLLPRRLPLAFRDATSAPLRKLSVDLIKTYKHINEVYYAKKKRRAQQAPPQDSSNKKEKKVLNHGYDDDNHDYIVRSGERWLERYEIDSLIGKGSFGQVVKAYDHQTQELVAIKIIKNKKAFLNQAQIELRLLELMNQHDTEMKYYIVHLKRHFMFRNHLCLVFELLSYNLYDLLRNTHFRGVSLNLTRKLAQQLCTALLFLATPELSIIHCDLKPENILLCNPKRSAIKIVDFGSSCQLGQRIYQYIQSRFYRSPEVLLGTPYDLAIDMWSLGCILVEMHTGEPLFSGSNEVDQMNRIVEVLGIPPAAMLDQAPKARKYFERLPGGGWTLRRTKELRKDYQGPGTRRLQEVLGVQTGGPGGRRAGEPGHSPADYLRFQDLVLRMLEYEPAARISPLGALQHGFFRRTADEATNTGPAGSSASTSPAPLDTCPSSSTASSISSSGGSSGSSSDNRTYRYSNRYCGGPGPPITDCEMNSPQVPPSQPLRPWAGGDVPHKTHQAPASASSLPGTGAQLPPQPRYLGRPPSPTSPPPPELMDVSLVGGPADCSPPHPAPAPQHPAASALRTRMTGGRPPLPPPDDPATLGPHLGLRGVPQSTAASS", "experiment": "ZLyte kinase assay, DYRK1B", "assay_type": "biochemical", "details": "average of three replicates", "protocol": "as §1"}, "EGFR": {"molecular_target": "T5, EGFR (Homo sapiens, UniProt P00533)", "T5 construct": "purchased ThermoFisher Scientific (Madison, WI, USA), contract service", "experiment": "ZLyte kinase assay, EGFR", "assay_type": "biochemical", "details": "average of three replicates", "protocol": "as §1"}, "GSK3B": {"molecular_target": "T6, GSK3B (Homo sapiens, UniProt P49841)", "T6 construct": "purchased ThermoFisher Scientific (Madison, WI, USA), contract service", "T6 sequence (P49841 whole entry)": "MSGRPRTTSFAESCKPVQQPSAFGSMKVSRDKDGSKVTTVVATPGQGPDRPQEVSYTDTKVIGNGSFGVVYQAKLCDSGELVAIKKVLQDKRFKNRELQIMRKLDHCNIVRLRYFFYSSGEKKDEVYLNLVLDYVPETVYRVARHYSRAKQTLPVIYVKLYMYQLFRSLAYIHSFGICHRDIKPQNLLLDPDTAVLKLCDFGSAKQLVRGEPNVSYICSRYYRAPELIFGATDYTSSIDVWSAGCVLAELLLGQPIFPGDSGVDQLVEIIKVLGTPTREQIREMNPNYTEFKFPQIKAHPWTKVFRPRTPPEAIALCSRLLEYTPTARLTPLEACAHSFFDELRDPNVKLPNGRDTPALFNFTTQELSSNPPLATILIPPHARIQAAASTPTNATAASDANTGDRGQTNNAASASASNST", "experiment": "ZLyte kinase assay, GSK3B", "assay_type": "biochemical", "details": "average of three replicates", "protocol": "as §1"}, "IGF1R": {"molecular_target": "T7, IGF1R (Homo sapiens, UniProt P08069)", "T7 construct": "purchased ThermoFisher Scientific (Madison, WI, USA), contract service", "T7 sequence (P08069 31-1367)": "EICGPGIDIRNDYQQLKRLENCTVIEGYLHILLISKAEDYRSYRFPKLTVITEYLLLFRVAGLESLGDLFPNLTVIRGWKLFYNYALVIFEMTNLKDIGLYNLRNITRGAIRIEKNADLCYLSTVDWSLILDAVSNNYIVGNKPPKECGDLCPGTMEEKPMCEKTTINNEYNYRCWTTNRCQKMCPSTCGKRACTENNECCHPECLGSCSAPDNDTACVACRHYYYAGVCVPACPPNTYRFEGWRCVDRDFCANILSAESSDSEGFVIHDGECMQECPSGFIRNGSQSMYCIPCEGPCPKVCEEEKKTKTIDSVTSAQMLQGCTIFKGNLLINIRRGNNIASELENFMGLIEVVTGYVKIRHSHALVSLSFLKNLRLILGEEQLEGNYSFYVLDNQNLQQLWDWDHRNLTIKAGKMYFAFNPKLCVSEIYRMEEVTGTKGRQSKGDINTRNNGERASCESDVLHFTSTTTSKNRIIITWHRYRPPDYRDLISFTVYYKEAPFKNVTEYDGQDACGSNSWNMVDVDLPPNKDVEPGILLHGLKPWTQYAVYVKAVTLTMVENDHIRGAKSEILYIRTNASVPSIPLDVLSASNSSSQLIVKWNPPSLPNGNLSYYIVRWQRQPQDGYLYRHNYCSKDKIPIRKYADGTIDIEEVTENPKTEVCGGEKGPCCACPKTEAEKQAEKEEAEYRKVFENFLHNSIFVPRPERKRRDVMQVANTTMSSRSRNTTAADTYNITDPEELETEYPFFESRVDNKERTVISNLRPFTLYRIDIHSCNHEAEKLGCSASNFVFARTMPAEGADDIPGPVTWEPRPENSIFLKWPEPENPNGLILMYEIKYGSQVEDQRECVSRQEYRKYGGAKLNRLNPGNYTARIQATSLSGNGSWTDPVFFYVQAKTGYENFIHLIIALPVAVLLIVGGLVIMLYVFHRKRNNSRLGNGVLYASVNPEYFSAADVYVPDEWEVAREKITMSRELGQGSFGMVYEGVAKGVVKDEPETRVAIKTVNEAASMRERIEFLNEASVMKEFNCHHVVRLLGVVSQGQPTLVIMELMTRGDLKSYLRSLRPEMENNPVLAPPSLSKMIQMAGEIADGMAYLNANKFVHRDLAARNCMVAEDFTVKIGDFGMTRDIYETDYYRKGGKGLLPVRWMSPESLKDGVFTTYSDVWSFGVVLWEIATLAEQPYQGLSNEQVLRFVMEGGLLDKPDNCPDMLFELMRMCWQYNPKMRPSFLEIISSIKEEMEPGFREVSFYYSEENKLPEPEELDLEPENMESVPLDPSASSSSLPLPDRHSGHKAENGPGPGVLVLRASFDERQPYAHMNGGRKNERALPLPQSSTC", "experiment": "ZLyte kinase assay, IGF1R", "assay_type": "biochemical", "details": "average of three replicates", "protocol": "as §1"}, "MAP2K2": {"molecular_target": "T8, MAP2K2 (Homo sapiens, UniProt P36507)", "T8 construct": "purchased ThermoFisher Scientific (Madison, WI, USA), contract service", "T8 sequence (P36507 whole entry)": "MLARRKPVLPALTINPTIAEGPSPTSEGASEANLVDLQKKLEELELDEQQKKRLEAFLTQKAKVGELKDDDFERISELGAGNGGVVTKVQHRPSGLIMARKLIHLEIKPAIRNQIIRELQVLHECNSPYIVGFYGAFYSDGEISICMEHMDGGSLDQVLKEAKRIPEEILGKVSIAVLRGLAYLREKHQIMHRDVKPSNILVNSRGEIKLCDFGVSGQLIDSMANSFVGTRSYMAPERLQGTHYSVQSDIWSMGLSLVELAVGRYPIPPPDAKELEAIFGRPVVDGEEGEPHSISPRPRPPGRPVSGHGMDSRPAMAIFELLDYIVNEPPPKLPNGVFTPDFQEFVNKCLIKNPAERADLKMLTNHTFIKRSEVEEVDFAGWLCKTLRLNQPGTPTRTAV", "experiment": "ZLyte kinase assay, MAP2K2", "assay_type": "biochemical", "details": "average of three replicates", "protocol": "as §1"}, "MET": {"molecular_target": "T9, MET (Homo sapiens, UniProt P08581)", "T9 construct": "purchased ThermoFisher Scientific (Madison, WI, USA), contract service", "T9 sequence (P08581 25-1390)": "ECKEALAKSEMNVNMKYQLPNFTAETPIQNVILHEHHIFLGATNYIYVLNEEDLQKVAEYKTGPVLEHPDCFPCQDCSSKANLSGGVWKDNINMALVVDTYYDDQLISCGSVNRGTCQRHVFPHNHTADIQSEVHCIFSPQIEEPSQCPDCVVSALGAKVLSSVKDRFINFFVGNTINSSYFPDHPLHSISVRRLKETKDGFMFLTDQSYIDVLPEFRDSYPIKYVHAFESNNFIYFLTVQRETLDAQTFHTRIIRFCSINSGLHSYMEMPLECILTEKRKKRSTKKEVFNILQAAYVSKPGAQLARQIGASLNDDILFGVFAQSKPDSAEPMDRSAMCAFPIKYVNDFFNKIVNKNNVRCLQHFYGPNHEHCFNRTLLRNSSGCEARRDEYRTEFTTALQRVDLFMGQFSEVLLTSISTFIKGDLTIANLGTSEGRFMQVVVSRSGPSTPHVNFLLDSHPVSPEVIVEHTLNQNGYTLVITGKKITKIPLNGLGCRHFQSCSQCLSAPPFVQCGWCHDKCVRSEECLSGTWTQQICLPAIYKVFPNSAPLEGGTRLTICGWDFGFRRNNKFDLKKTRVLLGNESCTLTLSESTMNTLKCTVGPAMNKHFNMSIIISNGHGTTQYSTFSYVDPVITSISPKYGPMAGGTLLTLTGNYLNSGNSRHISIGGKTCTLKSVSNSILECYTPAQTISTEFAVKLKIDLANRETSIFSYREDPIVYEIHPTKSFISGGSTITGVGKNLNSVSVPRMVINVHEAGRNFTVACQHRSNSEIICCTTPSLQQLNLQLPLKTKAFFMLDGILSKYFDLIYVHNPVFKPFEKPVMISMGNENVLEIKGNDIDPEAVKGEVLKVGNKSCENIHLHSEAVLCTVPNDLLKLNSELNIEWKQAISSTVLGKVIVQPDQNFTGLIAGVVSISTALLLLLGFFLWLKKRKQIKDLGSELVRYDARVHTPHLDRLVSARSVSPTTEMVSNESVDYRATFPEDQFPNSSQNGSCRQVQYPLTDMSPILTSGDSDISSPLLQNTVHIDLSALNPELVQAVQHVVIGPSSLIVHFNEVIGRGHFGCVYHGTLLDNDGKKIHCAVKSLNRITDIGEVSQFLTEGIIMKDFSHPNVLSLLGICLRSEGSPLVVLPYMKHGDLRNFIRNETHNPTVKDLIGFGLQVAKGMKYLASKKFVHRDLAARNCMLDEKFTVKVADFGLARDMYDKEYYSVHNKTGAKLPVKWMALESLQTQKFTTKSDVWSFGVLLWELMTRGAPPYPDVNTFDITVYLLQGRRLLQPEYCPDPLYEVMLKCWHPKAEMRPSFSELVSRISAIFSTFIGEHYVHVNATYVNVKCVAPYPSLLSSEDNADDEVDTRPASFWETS", "experiment": "ZLyte kinase assay, MET", "assay_type": "biochemical", "details": "average of three replicates", "protocol": "as §1"}, "PDGFRA": {"molecular_target": "T10, PDGFRA (Homo sapiens, UniProt P16234)", "T10 construct": "purchased ThermoFisher Scientific (Madison, WI, USA), contract service", "experiment": "ZLyte kinase assay, PDGFRA", "assay_type": "biochemical", "details": "average of three replicates", "protocol": "as §1"}, "SRC kinase": {"molecular_target": "T11, SRC kinase (Homo sapiens, UniProt P12931)", "T11 construct": "purchased ThermoFisher Scientific (Madison, WI, USA), contract service", "T11 sequence (P12931 whole entry)": "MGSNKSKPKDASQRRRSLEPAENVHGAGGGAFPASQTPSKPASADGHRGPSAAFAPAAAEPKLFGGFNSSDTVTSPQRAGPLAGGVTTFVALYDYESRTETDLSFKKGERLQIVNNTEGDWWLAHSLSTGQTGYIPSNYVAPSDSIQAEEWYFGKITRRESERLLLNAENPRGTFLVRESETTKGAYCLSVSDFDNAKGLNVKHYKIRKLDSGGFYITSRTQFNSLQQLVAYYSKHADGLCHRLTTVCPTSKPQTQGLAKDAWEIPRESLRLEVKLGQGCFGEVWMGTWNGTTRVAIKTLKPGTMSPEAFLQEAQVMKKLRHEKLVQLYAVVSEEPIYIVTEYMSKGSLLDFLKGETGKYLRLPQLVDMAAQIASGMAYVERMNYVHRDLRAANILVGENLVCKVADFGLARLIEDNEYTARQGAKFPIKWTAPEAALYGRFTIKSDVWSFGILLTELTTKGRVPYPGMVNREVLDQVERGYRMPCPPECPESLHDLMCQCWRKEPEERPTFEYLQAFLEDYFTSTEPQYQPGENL", "experiment": "ZLyte kinase assay, SRC", "assay_type": "biochemical", "details": "for inhibition at 1 µM: ZLyte, average of three replicates; for concentration-dependent inhibition of SRC kinase (in words): FIG. 6, representative experiment in triplicate", "protocol": "as §1"}},
  "data": [
    {"smiles": "CCN(CC)c1ccc(C(Nc2ccccn2)c2ccc3ccc(C)nc3c2OC)cc1", "note": "(stereo not shown) [Compound 20, N-((4-Diethylaminophenyl)(8-methoxy-2-methylquinolin-7-yl)methyl)pyridin-2-amine]", "values": [
      {"measurement": "anti-GLI1 activity in Sufu-KO cells (in words)", "setting": "GLI1 mRNA expression [1]", "result": "inactive"},
      {"measurement": "IC50", "setting": "GLI1 mRNA expression [1]; Table 5, GLI1 mRNA", "result": "> 25000", "unit": "nM"},
      {"measurement": "IC50", "setting": "GLI1 mRNA expression [2]; ASZ001, Table 5, GLI1 mRNA", "result": "1300 ± 300", "unit": "nM"},
      {"measurement": "GI50", "setting": "ASZ001 cells; Table 5, 48 h", "result": "> 100000", "unit": "nM"},
      {"measurement": "GI50", "setting": "DAOY (MB)", "result": "> 100", "unit": "µM"},
      {"measurement": "GI50", "setting": "PANC-1 (pancreatic)", "result": "> 100", "unit": "µM"},
      {"measurement": "inhibition at 1 µM", "setting": "CSF1R", "result": 8, "unit": "%"},
      {"measurement": "inhibition at 1 µM", "setting": "CSNK1A1", "result": 4, "unit": "%"},
      {"measurement": "inhibition at 1 µM", "setting": "DYRKIA", "result": 4, "unit": "%"},
      {"measurement": "inhibition at 1 µM", "setting": "DYRK1B", "result": 3, "unit": "%"},
      {"measurement": "inhibition at 1 µM", "setting": "EGFR", "result": -2, "unit": "%"},
      {"measurement": "inhibition at 1 µM", "setting": "GSK3B", "result": -1, "unit": "%"},
      {"measurement": "inhibition at 1 µM", "setting": "IGF1R", "result": 9, "unit": "%"},
      {"measurement": "inhibition at 1 µM", "setting": "MAP2K2", "result": 12, "unit": "%"},
      {"measurement": "inhibition at 1 µM", "setting": "MET", "result": 5, "unit": "%"},
      {"measurement": "inhibition at 1 µM", "setting": "PDGFRA", "result": 0, "unit": "%"},
      {"measurement": "inhibition at 1 µM", "setting": "SRC kinase", "result": 45, "unit": "%"},
      {"measurement": "concentration-dependent inhibition of SRC kinase (in words)", "setting": "SRC kinase", "result": "inhibit SRC kinase in a concentration-dependent fashion"}
    ]},
    {"smiles": "Cc1ccc2ccc(C(Nc3ccccn3)c3ccncc3)c(O)c2n1", "note": "(stereo not shown) [Compound 39, 7-((Pyridin-4-yl)(pyridin-2-ylamino)methyl)-2-methylquinolin-8-ol]", "values": [
      {"measurement": "IC50", "setting": "GLI1 mRNA expression [1]; Table 7, GLI1 mRNA", "result": "2900 ± 1900", "unit": "nM"},
      {"measurement": "IC50", "setting": "GLI1 mRNA expression [2]; ASZ001, Table 7, GLI1 mRNA", "result": "1900 ± 500", "unit": "nM"},
      {"measurement": "GI50", "setting": "ASZ001 cells; Table 7, 48 h", "result": "3900 ± 1200", "unit": "nM"},
      {"measurement": "GI50", "setting": "DAOY (MB)", "result": "1.2 ± 0.2", "unit": "µM"},
      {"measurement": "GI50", "setting": "PANC-1 (pancreatic)", "result": "0.83 ± 0.1", "unit": "µM"},
      {"measurement": "inhibition at 1 µM", "setting": "CSF1R", "result": 10, "unit": "%"},
      {"measurement": "inhibition at 1 µM", "setting": "CSNK1A1", "result": 3, "unit": "%"},
      {"measurement": "inhibition at 1 µM", "setting": "DYRKIA", "result": 6, "unit": "%"},
      {"measurement": "inhibition at 1 µM", "setting": "DYRK1B", "result": 3, "unit": "%"},
      {"measurement": "inhibition at 1 µM", "setting": "EGFR", "result": 2, "unit": "%"},
      {"measurement": "inhibition at 1 µM", "setting": "GSK3B", "result": 1, "unit": "%"},
      {"measurement": "inhibition at 1 µM", "setting": "IGF1R", "result": 12, "unit": "%"},
      {"measurement": "inhibition at 1 µM", "setting": "MAP2K2", "result": 14, "unit": "%"},
      {"measurement": "inhibition at 1 µM", "setting": "MET", "result": 4, "unit": "%"},
      {"measurement": "inhibition at 1 µM", "setting": "PDGFRA", "result": 0, "unit": "%"},
      {"measurement": "inhibition at 1 µM", "setting": "SRC kinase", "result": 46, "unit": "%"},
      {"measurement": "concentration-dependent inhibition of SRC kinase (in words)", "setting": "SRC kinase", "result": "inhibit SRC kinase in a concentration-dependent fashion"}
    ]},
    {"smiles": "Cc1ccc2ccc(C(Nc3ccccn3)c3ccc(N4CCCC4=O)cc3)c(O)c2n1", "note": "(stereo not shown) [Compound 48, 7-((4-(2-Oxopyrrolidin-1-yl)phenyl)(pyridin-2-ylamino)methyl)-2-methylquinolin-8-ol]", "values": [
      {"measurement": "IC50", "setting": "GLI1 mRNA expression [1]; Table 7, GLI1 mRNA", "result": "820 ± 270", "unit": "nM"},
      {"measurement": "IC50", "setting": "GLI1 mRNA expression [2]; ASZ001, Table 7, GLI1 mRNA", "result": "610 ± 340", "unit": "nM"},
      {"measurement": "GI50", "setting": "ASZ001 cells; Table 7, 48 h", "result": "19600 ± 3600", "unit": "nM"},
      {"measurement": "GI50", "setting": "DAOY (MB)", "result": "25 ± 2.3", "unit": "µM"},
      {"measurement": "GI50", "setting": "PANC-1 (pancreatic)", "result": "23.2 ± 4.3", "unit": "µM"},
      {"measurement": "inhibition at 1 µM", "setting": "CSF1R", "result": 8, "unit": "%"},
      {"measurement": "inhibition at 1 µM", "setting": "CSNK1A1", "result": 6, "unit": "%"},
      {"measurement": "inhibition at 1 µM", "setting": "DYRKIA", "result": 4, "unit": "%"},
      {"measurement": "inhibition at 1 µM", "setting": "DYRK1B", "result": 5, "unit": "%"},
      {"measurement": "inhibition at 1 µM", "setting": "EGFR", "result": 2, "unit": "%"},
      {"measurement": "inhibition at 1 µM", "setting": "GSK3B", "result": 4, "unit": "%"},
      {"measurement": "inhibition at 1 µM", "setting": "IGF1R", "result": 9, "unit": "%"},
      {"measurement": "inhibition at 1 µM", "setting": "MAP2K2", "result": 16, "unit": "%"},
      {"measurement": "inhibition at 1 µM", "setting": "MET", "result": 4, "unit": "%"},
      {"measurement": "inhibition at 1 µM", "setting": "PDGFRA", "result": 1, "unit": "%"},
      {"measurement": "inhibition at 1 µM", "setting": "SRC kinase", "result": 39, "unit": "%"},
      {"measurement": "concentration-dependent inhibition of SRC kinase (in words)", "setting": "SRC kinase", "result": "inhibit SRC kinase in a concentration-dependent fashion"}
    ]}
  ]
}
